Source: PMC5625163, “Incompatibility of chemical protein synthesis inhibitors with accurate measurement of extended protein degradation rates” (Pharmacology Research & Perspectives, 2017)
Counter-ions that a name gives are not always drawn. Like-named read-outs stand apart in the source and are kept apart here. Starred links: 1 amine or outer side, 2 acyl side, 3 side chain; linkers in the order of their positions; H or OH if unused. Positions of bridges follow the written chain, without caps; N, C: chain ends. Non-standard residues stand in square brackets, D forms with d. Residues, ends and D or L forms follow the SMILES beside them. Chains are numbered I, II in the order given. Actinocin(9to1) = Cc1c2oc3c(C)ccc(C(=O)[*:1])c3nc-2c(C(=O)[*:2])c(N)c1=O; NMeV = CN[C@H](C(=O)O)C(C)C; Sar = CNCC(=O)O

How the values were obtained:
[1] = Standard MTT cell viability assay in primary rat hepatocytes; type: cell-based; conditions: male, Sprague-Dawley
Method: Primary rat hepatocytes (PRH) were purchased from Invitrogen (Paisley, UK), isolated from male Sprague–Dawley rats at 9 weeks old (Lot. RS745). Cryopreserved PRH were thawed in a 37°C water bath for approximately 2 min until contents were around 90% thawed. Once thawed, the hepatocytes were added to 50 mL of prewarmed plating media (William's E media without phenol red supplemented with 5% FBS, 1 μmol/L dexamethasone, 1% solution of penicillin/streptomycin, 4 μg/mL bovine insulin, 2 mmol/L GlutaMAX™, and 15 mmol/L HEPES (CHRM® supplement A), and centrifuged for 3 min at 55g at 18°C and the supernatant fraction discarded. The hepatocytes were then resuspended in plating media at 1 × 10^6 cells per ml density.
(§1) Standard MTT assays were performed on HepG2 and PRH cells to measure cell viability. 2 × 10^4 cells per well of HepG2 were seeded into 96‐well plates in DMEM with 10% FBS and left overnight in a 37°C humidified incubator to allow cells to adhere to the plate. PRH were seeded in collagen coated 96‐well plates at a density of 2 × 10^4 cells per well. Old media was removed and replaced with 0–300 μmol/L of protein synthesis inhibitors and incubated for 72 h. A vehicle control and control with no drug was included. A quantity of 20 μL of 5 mg/mL […] in HBSS was added to each well and incubated for 2 h. A quantity of 100 μL lysis buffer (50% v/v dimethylformahyde and 20% v/v sodium dodecyl sulphate) was added to each well and the plate was incubated overnight at 37°C. The absorbance was quantified at 570 nm by a Tecan GENios micoplate reader (Germany).
(§2) Cycloheximide was incubated at 0–300 μmol/L and emetine at 0–30 μmol/L for both leucine incorporation and MTT assays.
(§3) The IC50 (concentration causing 50% protein synthesis inhibition), CC50 (concentration causing 50% cell viability), and CC10 (concentration causing 90% cell viability) were calculated by nonlinear regression of drug concentration versus leucine incorporation and MTT concentration–response graphs, respectively, using Graphpad Prism 3 software. The IC50 and CC50 values derived from the single inhibitor analyses were used for subsequent fixed‐ratio isobologram two‐drug combination analyses.

[2] = system: primary rat hepatocytes (PRH); experiment: [3H]-leucine incorporation protein synthesis inhibition assay in primary rat hepatocytes; type: cell-based; conditions: Hepatocyte, 72 h, read-out: IC50 protein synthesis inhibition
HepG2 cells [3] = experiment: [3H]-leucine incorporation protein synthesis inhibition assay in HepG2 cells; type: cell-based; conditions: Homo sapiens, read-out: IC50 protein synthesis inhibition
HeLa cells [4] = system: HeLa cells; parameters: method as in Dudani et al. (1988); conditions: at 0.9 mmol/L in HeLa cells; ref Dudani et al. (1988); cited from earlier work
[5] = Standard MTT cell viability assay in HepG2 cells; type: cell-based, human; conditions: human
Method: as §1, §2, §3

HepG2 cells [6] = experiment: Standard MTT cell viability assay in HepG2 cells; type: cell-based, human; conditions: 72 h
Method: as §1, §2, §3

HeLa cells [7] = conditions: cited from earlier work
Huh‐7 cells = conditions: at 10 μmol/L in Huh‐7 cells; ref Yin Low et al. (2009); cited from earlier work
[8] = PRH, 72 h, single inhibitor, MTT, mean ± SD, read-out: CC50 cytotoxicity (50% cell viability)
[9] = HepG2 cells, 72 h, single inhibitor, MTT, mean ± SD, read-out: CC50 cytotoxicity (50% cell viability)
[10] = HepG2 cells, single inhibitor, MTT

IC50 (HepG2 cells [3]; HepG2 cells, 72 h, single inhibitor, mean ± SD)	Structure (SMILES)	CC50 at 72 h [1]	IC50 ([2]; PRH, single inhibitor, mean ± SD)	protein synthesis inhibition (HeLa cells [4])	CC50 at 72 h [5]	CC10 (90% cell viability concentration) (HepG2 cells [6]; human)	concentration causing cytotoxicity (HeLa cells [7]; human cell lines, including HeLa cells, ref Dudani et al. (1988))	CC50 at 72 h [1, 8]	IC50 [2]	IC50 (HepG2 cells [3]; HepG2, 72 h)	CC50 at 72 h [5, 9]	CC10 (90% cell viability concentration) (HepG2 cells [6]; [10])	cell viability (Huh‐7 cells)	concentration sufficient to cause cell toxicity (HeLa cells [7]; HeLa cells, ref Sawicki and Godman (1971))
1600 ± 1200 nM	COc1ccc(C[C@H](N)C(=O)N[C@H]2[C@@H](O)[C@H](n3cnc4c(N(C)C)ncnc43)O[C@@H]2CO)cc1 [puromycin, puromycin dihydrochloride]	1600 ± 1000 nM	2000 ± 2000 nM	79.6%	1300 ± 64 nM	110 nM	900 nM	–	–	–	–	–	–	–
–	C[C@@H]1C[C@@H]([C@H](O)CC2CC(=O)NC(=O)C2)C(=O)[C@@H](C)C1 [cycloheximide]	–	–	–	–	–	–	680 ± 1300 nM	290 ± 90 nM	6600 ± 2500 nM	570 ± 510 nM	24 nM	–	–
–	CC[C@H]1CN2CCc3cc(OC)c(OC)cc3[C@@H]2C[C@@H]1C[C@H]1NCCc2cc(OC)c(OC)cc21 [emetine, emetine dihydrochloride hydrate]	–	–	–	–	–	–	180 nM	620 ± 920 nM	2200 ± 1400 nM	81 ± 9 nM	7.0 nM	over 90%	–
–	Cc1c2oc3c(C)ccc(C(=O)N[C@@H]4C(=O)N[C@H](C(C)C)C(=O)N5CCC[C@H]5C(=O)N(C)CC(=O)N(C)[C@@H](C(C)C)C(=O)O[C@@H]4C)c3nc-2c(C(=O)N[C@@H]2C(=O)N[C@H](C(C)C)C(=O)N3CCC[C@H]3C(=O)N(C)CC(=O)N(C)[C@@H](C(C)C)C(=O)O[C@@H]2C)c(N)c1=O [actinomycin D] (I: T[dV]P[Sar][NMeV] / II: T[dV]P[Sar][NMeV]; ester I:1-I:C, II:1-II:C; linker I:N-II:N via Actinocin(9to1))	–	–	–	–	–	–	0.98 ± 1.8 nM	1.7 ± 1.8 nM	39 ± 7.4 nM	6.2 ± 7.3 nM	0.17 nM	–	80 nM
